Patent US6552192B1, “Substituted nitrogen heterocyclic derivatives and pharmaceutical use thereof” (Ustau Experimentalni Botaniky AV-CR, priority 1999, dated 2003)
Where two headings read alike, the source gives them in different places.

Assays:
IκB-α = IκB-α kinase inhibition, in vitro kinase assay; type: biochemical
CDC2 (p34^cdc2) = target: T1, CDC2 (p34^cdc2) (Homo sapiens, UniProt P06493); test: CDK inhibition assay, p34cdc2 kinase (histone H1 phosphorylation); type: biochemical; settings: 1 mg/ml histone H1, 15 μM ATP
T1 construct: made in house; host or cells: Sf9 insect cells (baculovirus co-infection)
T1 sequence (P06493 whole entry, species assumed): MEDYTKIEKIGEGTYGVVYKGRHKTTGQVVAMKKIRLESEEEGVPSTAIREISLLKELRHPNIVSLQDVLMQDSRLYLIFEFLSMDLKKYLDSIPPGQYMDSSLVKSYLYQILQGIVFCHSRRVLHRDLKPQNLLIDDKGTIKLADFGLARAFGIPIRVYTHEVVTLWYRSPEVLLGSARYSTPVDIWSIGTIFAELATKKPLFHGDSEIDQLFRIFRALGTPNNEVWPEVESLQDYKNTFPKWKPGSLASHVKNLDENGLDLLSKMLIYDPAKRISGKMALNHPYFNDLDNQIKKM
T1 sequence (P14635 whole entry partner, species assumed): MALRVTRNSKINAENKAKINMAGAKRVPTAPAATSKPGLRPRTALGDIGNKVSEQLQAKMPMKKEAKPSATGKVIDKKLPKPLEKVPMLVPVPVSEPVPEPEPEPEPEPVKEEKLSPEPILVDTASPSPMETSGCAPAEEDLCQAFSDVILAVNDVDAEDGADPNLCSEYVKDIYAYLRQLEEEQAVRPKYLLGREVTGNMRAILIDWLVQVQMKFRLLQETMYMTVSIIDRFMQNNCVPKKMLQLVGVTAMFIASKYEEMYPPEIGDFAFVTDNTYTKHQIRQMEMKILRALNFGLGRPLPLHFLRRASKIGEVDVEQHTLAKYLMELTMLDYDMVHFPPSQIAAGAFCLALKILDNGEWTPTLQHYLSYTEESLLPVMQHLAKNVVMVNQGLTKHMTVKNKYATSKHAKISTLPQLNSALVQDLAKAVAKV
Experimental: Cyclin-dependent kinases (p34^cdc2, p33^cdk2, p33^cdk4) and cyclins (cyclin B, E and D1) are produced in Sf9 insect cells coinfected with appropriate baculoviral constructs. The cells are harvested 68-72 hrs post infection in lysis buffer for 30 min on ice and the soluble fraction is recovered by centrifugation at 14.000 g for 10 min. The protein extract is stored at −80° C.
Lysis buffer: 50 mM Tris pH 7,4, 150 mM NaCl, 5 mM EDTA, 20 mM NaF, 1% Tween, 1 mM DTT, 0.1 mM PMSF, leupeptine, aprotomine
To carry out experiments on kinetics under linear conditions, the final point test system for kinase activity measurement is used. The kinase is added to reaction mixture in such a way as to obtain linear activity with respect to the concentration of enzyme and with respect to time.
Kinase activity is determined at 30° C. in the kinase buffer.
Tested compounds are usually dissolved to 100 mM solutions in DMSO, final concentration of DMSO in reaction mixture never exceeds 1%. The controls contain suitable dilutions of DMSO.
After 10 min, addition 3×SDS sample buffer stops the incubations. […] The measurement of kinase activity is done using digital image analysis.
The kinase activity is expressed as a percentage of maximum activity, the apparent inhibition constants are determined by graphic analysis. Kinase buffer: 50 mM Hepes pH 7.4, 10 mM MgCl2, 5 mM EGTA, 10 mM 2-glycerolphosphate, 1 mM NaF, 1 mM DTT

[1] = test system: T-lymphoblastic leukemia cell line CEM; test: In vitro cytotoxicity, MTT assay, CEM; type: cell-based; settings: Homo sapiens, 72 hours
From the text: (§1) One of the parameters used, as the basis for colorimetric assays, is the metabolic activity of viable cells. For example, a microtiter assay, which uses the tetrazolium salt MTT, is now widely used to quantitate cell proliferation and cytotoxicity. For instance, this assay is used in drug screening programs and in chemosensitivity testing. Because only metabolically active cells cleave tetrazolium salts, these assays detect viable cells exclusively. In the case of MTT assay, yellow soluble tetrazolium salt is reduced to coloured water-insoluble formazan salt. After it is solubilized, the formazan formed can easily and rapidly be quantified in a conventional ELISA plate reader at 570 nm (maximum absorbance). The quantity of reduced formazan corresponds to number of vital cells in the culture.
(§2) The cells were maintained in Nunc/Corning 80 cm^2 plastic tissue culture flasks and cultured in cell culture medium (DMEM with 5 g/l glucose, 2 mM glutamine, 100 U/ml penicillin, 100 μg/ml streptomycin, 10% fetal calf serum and sodium bicarbonate).
(§3) The cell suspensions that were prepared and diluted according to the particular cell type and the expected target cell density (2.500-30.000 cells per well based on cell growth characteristics) were added by pipette (80 μl) into 96/well microtiter plates. Inoculates were allowed a pre-incubation period of 24 hours at 37° C. and 5% CO2 for stabilisation. Four-fold dilutions of the intended test concentration were added at time zero in 20 μl aliquots to the microtiter plate wells. Usually, test compound was evaluated at six 4-fold dilutions. […] All drug concentrations were examined in duplicates. Incubations of cells with the test compounds lasted for 72 hours at 37° C., in 5% CO2 atmosphere and 100% humidity. At the end of incubation period, the cells were assayed by using the MTT. Ten microliters of the MTT stock solution were pipetted into each well and incubated further for 1-4 hours. […] The optical density (OD) was measured at 540 nm with the Labsystem iEMS Reader MF (UK). The tumour cell survival (TCS) was calculated using the following equitation: TCS=(ODdrug exposed well/mean ODcontrol wells)×100%. The TCS50 value, the drug concentration lethal to 50% of the tumour cells, was calculated from the obtained dose response curves.

B16 melanoma = test: In vitro cytotoxicity, MTT assay, B16; type: cell-based; settings: Mus musculus, 72 hours
From the text: as §1, §2, §3

[2] = test system: normal human lymphocytes, mitogen activated proliferation; test: Mitogen (concanavalin A) activated proliferation of lymphocytes, 3H-thymidine incorporation; type: cell-based; settings: Lymphocyte, 72 hours
Experimental: (§4) Human heparinized peripheral blood was obtained from healthy volunteers by cubital vein punction.
(§5) The cells were diluted at target density of 1.100.000 cells/ml were added by pipet (180 μl) into 96/well microtiter plates. Four-fold dilutions of the intended test concentration were added at time zero in 20 μl aliquots to the microtiter plate wells. Usually, test compound was evaluated at six 4-fold dilutions. […] Incubations of cells with test compounds lasted for 72 hours at 37° C., in 5% CO2 atmosphere and 100% humidity. At the end of incubation period, the cells were assayed by using the [^3H]-TdR:
(§6) Cell cultures were incubated with […] (20 μl of stock solution 500 μCi/ml) per well for 6 hours at 37° C. and 5% CO2. The automated cell harvester was used to lyse cells in water and adsorb the DNA onto glass-fiber filters in the format of microtiter plate. The DNA incorporated [^3H]-TdR was retained on the filter while unincorporated material passes through. The filters were dried at room temperature overnight, sealed into a sample bag with 10-12 ml of scintillant. The amount of [^3]H-TdR present in each filter (in CCPM) was determined by scintillation counting in a Betaplate liquid scintillation counter. The effective dose of immunosuppressant (ED) was calculated using the following equotation: ED=(CCPMdrug exposed well/mean CCPMcontrol wells)×100%.

[3] = test system: normal human lymphocytes, spontaneous proliferation; test: Spontaneous proliferation of lymphocytes, 3H-thymidine incorporation; type: cell-based; settings: Lymphocyte, 72 hours, unstimulated lymphocytes
Experimental: as §4, §5, §6

[4] = unit nM printed beside the value

| IC50 (IκB-α) [nM] | IC50 (CDC2 (p34^cdc2); 30° C., 10 min) [nM] | melting point [°C] | IC50 (IκB-α; [4]) [nM] | IC50 (CDC2 (p34^cdc2); [4]) [nM] | Compound | IC50 [1] [µM] | IC50 (B16 melanoma) [µM] | IC50 [2] [µM] | IC50 [3] [µM] |
| --- | --- | --- | --- | --- | --- | --- | --- | --- | --- |
| 1200 | 380 | – | – | – | CC[C@H](CO)Nc1nc(NCc2ccccc2)c2nc(F)n(C(C)C)c2n1 | 3.38 | 3.2 | – | – |
| 153000 | 144000 | – | – | – | CC(C)n1c(NCCO)nc2c(NCc3ccccc3)nc(NCCCO)nc21 | > 167 | > 167 | 29.3 | 181 |
| 24500 | 12900 | 156 to 161 | – | – | CC(C)n1c(Br)nc2c(NCc3ccccc3)nc(NCCCO)nc21 [2-(3-hydroxypropylamino)-6-benzylamino-8-bromo-9-isopropypurine] | 117 | 76.4 | 5.9 | 178 |
| – | – | 64 to 67 | – | – | CSc1nc2c(NCc3ccccc3)nc(NCCCO)nc2n1C(C)C [2-(3-hydroxypropylamino)-6-benzylamino-8-methylthio-9-isopropylpurine] | 68.4 | 60.6 | – | – |
| 193000 | 181000 | – | – | – | CC[C@H](CO)Nc1nc(NCc2ccccc2)c2nc(NCN)n(C(C)C)c2n1 | – | – | 25.8 | 177 |
| 12800 | 8520 | – | – | – | CC(C)n1c(N)nc2c(NCc3ccccc3)nc(NCCCO)nc21 | 8.52 | 6.8 | 1.59 | 143 |
| 12600 | 6480 | – | – | – | CC(C)n1c(O)nc2c(NCc3ccccc3)nc(NCCCO)nc21 | 7.48 | 5.6 | 2.1 | 163 |

Continued, compound first:

| Compound | IC50 (IκB-α) [nM] | IC50 (CDC2 (p34^cdc2); 30° C., 10 min) [nM] | melting point [°C] | IC50 (IκB-α; [4]) [nM] | IC50 (CDC2 (p34^cdc2); [4]) [nM] | IC50 [1] [µM] | IC50 (B16 melanoma) [µM] | IC50 [2] [µM] | IC50 [3] [µM] |
| --- | --- | --- | --- | --- | --- | --- | --- | --- | --- |
| COc1cccc(CNc2nc(Cl)nc3c2nc(Br)n3C(C)C)c1 [Example 3, 6-(3-Methoxybenzylamino)-2-chloro-8-bromo-9-isopropylpurine] | – | – | 123 to 125 | – | – | – | – | – | – |
| CC(C)[C@H](CO)Nc1nc(Nc2cccc(Cl)c2)c2nc(F)n(C(C)C)c2n1 | – | – | – | 11 | 3.8 | 2.5 | – | – | – |
| Cn1c(O)nc2c(NCc3ccccc3)nc(NCCO)nc21 | 16200 | 13500 | – | – | – | 45.5 | 56.2 | 48.6 | 201 |
| Cn1c(S)nc2c(NCc3ccccc3)nc(NCCO)nc21 | 35700 | 22400 | – | – | – | 92.4 | 85.7 | 83.5 | ≥ 250 |
| Cn1c(NCCO)nc2c(NCc3ccccc3)nc(NCCO)nc21 | 154000 | 125000 | – | – | – | > 167 | > 167 | 169 | ≥ 250 |
